Results from patent US20250213478A1, “CATIONIC LIPID HAVING DISULFIDE BOND, LIPID MEMBRANE STRUCTURE INCLUDING SAME, NUCLEIC ACID INTRODUCTION AGENT AND PHARMACEUTICAL COMPOSITION CONTAINING ANY ONE OF SAME, METHOD FOR INTRODUCING NUCLEIC ACID INTO CELL OR TARGET CELL, AND METHOD FOR PRODUCING CELLULAR PHARMACEUTICAL” (NOF Corporation, priority 2022, published 2025).

What was measured:
[1] = Measurement of Liposomal pKa of LNP (TNS fluorescence); assay type: physicochemical; conditions: LNP without nucleic acid, cationic lipid:DOPC:Chol=52.5:7.5:40 + about 1.5 mol DMG-PEG2k; pH at which relative TNS fluorescence intensity was 50%
Protocol: Lipid nanoparticles (LNP) without containing nucleic acid were used for the evaluation of Liposomal pKa.
A 10 mM ethanol solution of cationic lipid, a 5 mM ethanol solution of DOPC, and a 10 mM ethanol solution of Chol were mixed at desired ratio (cationic lipid:DOPC:Chol=52.5:7.5:40 (molar ratio)) in an Eppendorf tube to achieve the total lipid amount of 720 nmol. To the obtained mixture was further added DMG-PEG2k (2 mM ethanol solution) in an amount of about 1.5 mol with respect to the total amount 100 mol of cationic lipid, DOPC, and Chol, and then ethanol was added to prepare an ethanol solution of the lipid (total amount: 360 μL).
(§1) An acidic malic acid buffer (20 mM, pH 3.0) (1080 μL) containing NaCl at a final concentration of 30 mM and an ethanol solution (360 μL) of lipid were each weighed in a syringe. Using an ultra high-speed nanomedicament producing apparatus NanoAssmblr (manufactured by Precision NanoSystems), LNP was prepared under the conditions of addition rate of acidic buffer solution: 3 mL/min, addition rate of ethanol solution of lipid: 1 mL/min, and syringe holder temperature: 25° C., and collected in a 15 mL tube. MES buffer (pH 6.5) (3000 μL) was added to the 15 mL tube, the obtained mixture was transferred to Amicon Ultra 4, and ultrafiltration was performed under centrifugation conditions (25° C., 1000 g, 6 min) to concentrate the mixture to about 100 μL. The obtained concentrate was diluted with PBS to 4 mL, and the mixture was concentrated again under centrifugation conditions (25° C., 1000 g, 6 min), and this operation was performed twice. The obtained concentrate was diluted with PBS to a lipid concentration of 0.5 mM to give a dispersion containing LNP.
20 mM Citrate buffer, sodium phosphate buffer, and tris HCl buffer, each containing NaCl at a final concentration of 150 mM and adjusted to various pHs within the range of pH 3.0 to 10.0, were prepared. TNS (manufactured by Sigma) was diluted with ultrapure water to 0.6 mM. TNS solution (2 μL), dispersions (12 μL) containing LNP prepared in [Experimental Example 1], 1., and buffers adjusted to various pHs (186 μL) were added to a black 96 well plate. The plate was protected from light and shaken at 400 rpm for 10 min. The fluorescence intensity (excitation: 321 nm/emission: 447 nm) was measured using a plate reader (manufactured by TECAN). The relative fluorescence intensity was calculated as a percentage, with the maximum value of the fluorescence intensity in each LNP being 100% and the minimum value being 0%. Furthermore, the pH at which the relative fluorescence intensity was 50% was taken as Liposomal pKa. In Comparative Example, the cationic lipid described in the aforementioned Table 3 were used.

[2] = Particle size, PdI and zeta potential of mRNA-encapsulating LNPs (dynamic light scattering); assay type: physicochemical; conditions: mRNA-encapsulating LNP, cationic lipid:DOPC:Chol=55:5:40 + about 1 mol DMG-PEG2k; for PdI / particle size: dynamic light scattering; for zeta potential: physiological pH
Protocol: A 10 mM ethanol solution of cationic lipid, a 5 mM ethanol solution of DOPC, and a 10 mM ethanol solution of Chol were mixed at desired ratio (cationic lipid:DOPC:Chol=55:5:40 (molar ratio)) in an Eppendorf tube to achieve the total lipid amount of 720 nmol. To the obtained mixture was further added DMG-PEG2k (2 mM ethanol solution) in an amount of about 1 mol with respect to the total amount 100 mol of cationic lipid, DOPC, and Chol, and then ethanol was added to prepare an ethanol solution of the lipid (total amount: 360 μL).
An acidic buffer solution (total amount: 1080 μL) of nucleic acid was prepared by weighing 7.2 μg of mRNA solution (0.6 mg/mL) in a 5 mL tube and adding acidic malate buffer (20 mM, pH 3.0) containing NaCl at a final concentration of 30 mM.
as §1, with “buffer solution of nucleic” for “malic”, “acid” for “acid buffer (20 mM, pH 3.0) (1080 μL) containing NaCl at a final concentration of 30 mM”, “solution” for “solution (360 μL)”, “solution of nucleic acid:” for “solution:”, “2” for “0.5”
The particle size, PdI (Polydispersity Index), and zeta potential of the mRNA-encapsulating LNP prepared by the method of the above-mentioned 1 were measured by a dynamic light scattering method. In Comparative Example, the cationic lipid described in the aforementioned Table 3 were used.

HeLa cells = assay: Evaluation of in vitro gene expression in HeLa cell (luciferase mRNA-encapsulating LNP); assay type: cell-based, human; conditions: for cumulative luciferase luminescence intensity over 24 hr: luciferase mRNA 0.4 μg per dish, LNP cationic lipid:DOPC:Chol:DMG-PEG2k=55:5:40:1; for gene expression activity compared to Comparative Example: result in words
Protocol: (§2) LNP encapsulating mRNA that expresses luciferase (cationic lipid:DOPC:Chol:DMG-PEG2k=55:5:40:1 (molar ratio)) was prepared by the method described in [Experimental Example 2], 1.
HeLa cells, which are human cervical cancer cells, were seeded in a 3.5 cm dish at 5.0×10^4 cells/2 mL/Dish 24 hours before transfection. After 24 hours, the medium was exchanged with a culture medium (D-MEM) containing 0.1 mM D-luciferin. Prepared mRNA-encapsulating LNP was diluted with PBS such that the concentration of mRNA was about 8 μg/mL. The diluted mRNA-encapsulating LNP solution (about 50 μL, mRNA: 0.4 μg) was added to the 3.5 cm dish and set in an incubator luminometer KronosDio. The luminescence intensity of luciferase was measured for 2 min every one hour. The cumulative luciferase luminescence intensity for 24 hr was calculated from the obtained time change of expression. For example, “1.0E+06” means “1.0×10^6”. In Comparative Example, the cationic lipid described in the aforementioned Table 3 were used.

BALB/c mouse = assay: Evaluation of in vivo gene expression (luciferase mRNA-encapsulating LNP, IVIS of isolated organs); conditions: for relative value based on Comparative Example (amount of luminescence in spleen): relative to O-Ph-P4C2 LNP = 1.00; for amount of luminescence in each organ: heart / amount of luminescence in each organ: kidney / amount of luminescence in each organ: liver / amount of luminescence in each organ: lung / amount of luminescence in each organ: spleen: 4.5 hr + 15 min after administration; for amount of luminescence in each organ: spleen: spleen (Table 7)
Protocol: as §2
The prepared each mRNA-encapsulating LNP dispersion was administered from the tail vein of BALB/c mouse (male, 5-week-old). The dose of mRNA was set to 0.05 mg per 1 kg body weight of the mouse, and the dose of the mRNA-encapsulating LNP dispersion was set to 10 μL per 1 g body weight of the mouse. After 4.5 hr from the administration of the mRNA-encapsulating LNP dispersion, a PBS solution of D-luciferin potassium was administered into the abdominal cavity of the mouse. The dose of D-luciferin potassium was set to 3 mg per mouse, and the dose of the PBS solution of D-luciferin potassium was set to 200 μL per mouse. After 15 min from the administration of the PBS solution of D-luciferin potassium, the mouse was euthanized, and the liver, spleen, kidney, heart, and lung were isolated. The luminescence in each organ was quantified using an in vivo imaging system (IVIS) with an exposure of 10 sec. The amount of luminescence in each organ was quantified by image analysis using Live Imaging software attached to IVIS. The amount of luminescence (photons/sec) was calculated from the acquired image and used as an index of gene expression activity. “E+0a” (a: integer) indicated in Table 7 and Table 8 means “10^a”. For example, “1.0E+02” means “1.0×10^2”. In Comparative Example, the cationic lipid described in the aforementioned Table 3 were used.

Row | Compound | pKa [1] | PdI [2] | particle size [2] [nm] | zeta potential [2] [mV] | cumulative luciferase luminescence intensity over 24 hr (HeLa cells) [RLU] | relative value based on Comparative Example (amount of luminescence in spleen) (BALB/c mouse) | amount of luminescence in spleen (BALB/c mouse; tail vein, mRNA 0.05 mg/kg, spleen (Table 8)) [photons/sec] | gene expression activity compared to Comparative Example (HeLa cells) | amount of luminescence in each organ: heart (BALB/c mouse; tail vein, mRNA 0.05 mg/kg) [photons/sec] | amount of luminescence in each organ: kidney (BALB/c mouse; tail vein, mRNA 0.05 mg/kg) [photons/sec] | amount of luminescence in each organ: liver (BALB/c mouse; tail vein, mRNA 0.05 mg/kg) [photons/sec] | amount of luminescence in each organ: lung (BALB/c mouse; tail vein, mRNA 0.05 mg/kg) [photons/sec] | amount of luminescence in each organ: spleen (BALB/c mouse; tail vein, mRNA 0.05 mg/kg) [photons/sec]
1 | CCCCCCCC/C=C\CCCCCCCC(=O)Oc1ccc(CC(=O)OCCC2CCN(CCSSCCN3CCC(CCOC(=O)Cc4ccc(OC(=O)CCCCCCC/C=C\CCCCCCCC)cc4)CC3)CC2)cc1 [Comparative Example, O-Ph-P4C2, reference compound] | 6.3 | 0.064 | 73 | −1.5 | 1.11E+07 | 1.00 | 1.08E+07 | – | – | – | – | – | –
2 | CCCCCCCCCCCCCCC(CCCCCCCCCCCCCC)C(=O)Oc1ccc(CC(=O)OCCSSCCOC(=O)CCCN(C)C)cc1 [Example 7] | 7.8 | 0.077 | 92 | 6.8 | 2.13E+08 | 0.37 | – | superior gene expression activity | 6.86E+05 | 6.35E+05 | 1.23E+06 | 8.28E+05 | 4.03E+06
3 | CCCCCCCCCCCCCCCCC(CCCCCCCCCCCCCCCC)C(=O)Oc1ccc(CC(=O)OCCSSCCOC(=O)C(C)CN(C)C)cc1 (stereo not drawn) [Example 13] | 6.3 | 0.086 | 94 | −10.2 | 1.44E+05 | 0.19 | – | – | 1.00E+06 | 8.00E+05 | 5.00E+07 | 8.67E+05 | 2.00E+06
4 | CCCCCCCCCCCCCCCCC(CCCCCCCCCCCCCCCC)C(=O)Oc1ccc(CC(=O)OCCSSCCOC(=O)NCCN(C)C)cc1 [Example 21] | 7.9 | 0.118 | 116 | 6.4 | 1.22E+08 | 0.05 | – | superior gene expression activity | 3.41E+05 | 5.83E+05 | 3.68E+05 | 6.51E+05 | 5.86E+05
5 | CCCCCCCCCCCCCCCCC(CCCCCCCCCCCCCCCC)C(=O)Oc1ccc(CC(=O)OCCSSCCOC(=O)NCCN(CC)CC)cc1 [Example 22] | 7.5 | 0.090 | 96 | 4.7 | 2.38E+08 | 0.29 | – | superior gene expression activity | 3.91E+05 | 4.45E+05 | 8.31E+06 | 5.20E+05 | 3.16E+06
